Test results from ChEMBL document CHEMBL5113416, “Glycosylation increases the anti-QS as well as anti-biofilm and anti-adhesion ability of the cyclo (L-Trp-L-Ser) against Pseudomonas aeruginosa” (Eur J Med Chem, 2022).
Active and inactive are the calls of the source. The calls are words filed in the database; no cut-off is given here.

Experiments:
[1] = Inhibition of quorum sensing system in Pseudomonas aeruginosa PAO1 assessed as downregulation of lasR gene expression at 200 uM by qRT-PCR analysis
Pseudomonas aeruginosa [2] = experiment: Anti-adhesion activity against Pseudomonas aeruginosa PAO1 assessed as inhibition of adhesion ability incubated for 3 hrs using glass as substrate by colony-counting method; type: functional, organism-based; details: PAO1, 3 h
Pseudomonas aeruginosa [3] = experiment: Anti-adhesion activity against Pseudomonas aeruginosa PAO1 assessed as inhibition of adhesion ability at 200 uM incubated for 3 hrs using glass as substrate by colony-counting method; type: functional
[4] = Inhibition of quorum sensing system in Pseudomonas aeruginosa PAO1 assessed as decrease of pyocyanin production at 200 uM for 18 hrs by microplate reader analysis
Pseudomonas aeruginosa [5] = experiment: Anti-adhesion activity against Pseudomonas aeruginosa PAO1 to human A549 cells assessed as decrease in cell adhesion ability at 200 uM incubated for 3 hrs by DAPI staining based confocal microscopy; type: functional
Pseudomonas aeruginosa [6] = experiment: Antibiofilm activity against Pseudomonas aeruginosa PAO1 assessed as inhibition of biofilm formation incubated for 24 hrs in presence of CaCl2 by crystal violet staining based microscopic analysis; type: functional, organism-based; details: PAO1, 24 h
[7] = Inhibition of quorum sensing system in Pseudomonas aeruginosa PAO1 assessed as decrease of pyocyanin production at 10 to 200 uM for 18 hrs by microplate reader analysis; details: dose 10-200 µM
Pseudomonas aeruginosa [8] = experiment: Antibiofilm activity against Pseudomonas aeruginosa PAO1 assessed as disruption of preformed biofilm incubated for 4 hrs by crystal violet staining based microscopic analysis; type: functional, organism-based; details: PAO1, 4 h
Pseudomonas aeruginosa [9] = experiment: Antibiofilm activity against Pseudomonas aeruginosa PAO1 assessed as disruption of preformed biofilm at 200 uM incubated for 4 hrs by SEM analysis; type: functional, organism-based
Pseudomonas aeruginosa [10] = experiment: Synergistic bactericidal activity against Pseudomonas aeruginosa PAO1 assessed as reduction in bacterial density at 200 uM incubated for 6 hrs in presence of azithromycin by colony-counting method; type: functional; design: scale not given: the % may be the effect or the level left
[11] = Toxicity in sheep red blood cells assessed as induction of hemolysis measured after 4 hr; type: cell-based, Ovis aries, Erythrocyte
Pseudomonas aeruginosa [12] = experiment: Antibiofilm activity against Pseudomonas aeruginosa PAO1 assessed as disruption of preformed biofilm at 200 uM incubated for 4 hrs by crystal violet staining based microscopic analysis; type: functional
[13] = Toxicity in sheep red blood cells assessed as induction of hemolysis at 200 uM for 4 hr; type: cell-based, Ovis aries; details: erythrocyte
Pseudomonas aeruginosa [14] = experiment: Antibiofilm activity against Pseudomonas aeruginosa PAO1 assessed as disruption of preformed biofilm at 200 uM incubated for 4 hrs by Confocal microscopic analysis; type: functional, organism-based
Pseudomonas aeruginosa [15] = experiment: Synergistic bactericidal activity against Pseudomonas aeruginosa PAO1 assessed as reduction in bacterial density at 200 uM incubated for 1 hrs in presence of azithromycin by colony-counting method; type: functional; design: scale not given: the % may be the effect or the level left
[16] = Inhibition of quorum sensing system in Pseudomonas aeruginosa PAO1 assessed as downregulation of […] gene expression at 200 uM by qRT-PCR analysis
[17] = Stability of the compound in rabbit plasma assessed as retention rate at 200 to 1000 uM and measured upto 24 hrs by HPLC analysis; type: ADME, cell-free, Oryctolagus cuniculus; details: dose 200-1000 µM, read-out: Stability
Pseudomonas aeruginosa [18] = experiment: Antibiofilm activity against Pseudomonas aeruginosa PAO1 assessed as inhibition of swarming motility at 200 uM for 18 hrs by motility assay; type: functional, organism-based
[19] = target: Elastase (Pseudomonas aeruginosa (strain ATCC 15692 / PAO1 / 1C / PRS 101 / LMG12228)) (UniProt P14756); experiment: Inhibition of Pseudomonas aeruginosa PAO1 elastase activity at 10 to 200 uM for 18 hrs by elastin Congo red based microplate reader analysis; details: dose 10-200 µM
Elastase (Pseudomonas aeruginosa (strain ATCC 15692 / PAO1 / 1C / PRS 101 / LMG12228)), sequence (P14756 198-498 limits assumed): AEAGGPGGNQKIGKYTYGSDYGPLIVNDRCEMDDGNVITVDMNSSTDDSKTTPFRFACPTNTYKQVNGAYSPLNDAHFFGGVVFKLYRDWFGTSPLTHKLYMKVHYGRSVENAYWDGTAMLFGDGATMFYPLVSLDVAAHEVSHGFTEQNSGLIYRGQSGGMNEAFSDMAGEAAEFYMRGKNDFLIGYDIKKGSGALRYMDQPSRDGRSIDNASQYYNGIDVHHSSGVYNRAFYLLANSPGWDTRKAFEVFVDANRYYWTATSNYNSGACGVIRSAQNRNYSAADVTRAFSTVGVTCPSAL

Pseudomonas aeruginosa [20] = experiment: Antibiofilm activity against Pseudomonas aeruginosa PAO1 assessed as inhibition of biofilm formation at 200 uM incubated for 24 hrs in presence of CaCl2 by crystal violet staining based microscopic analysis; type: functional
[21] = Inhibition of quorum sensing system in Pseudomonas aeruginosa PAO1 assessed as downregulation of rhlR gene expression at 200 uM by qRT-PCR analysis
A549 = experiment: Cytotoxicity against human A549 cells assessed as reduction in cell viability at 2 mM incubated for 24 hrs by MTT assay; type: toxicity, cell-based; details: a549, 24 h, 2000 µM
Pseudomonas aeruginosa [22] = experiment: Anti-adhesion activity against Pseudomonas aeruginosa PAO1 assessed as inhibition of adhesion ability at 50 ug/ml incubated for 3 hrs using glass as substrate by SEM analysis; type: functional, organism-based; details: dose 50.0 µg/ml
Pseudomonas aeruginosa [23] = experiment: Bactericidal activity against Pseudomonas aeruginosa PAO1 assessed as reduction in bacterial density at 150 ug/ml incubated for 6 hrs by colony-counting method; type: functional; design: scale not given: the % may be the effect or the level left; details: dose 150 µg/ml
Pseudomonas aeruginosa [24] = experiment: Bactericidal activity against Pseudomonas aeruginosa PAO1 assessed as reduction in bacterial density at 150 ug/ml incubated for 1 hrs by colony-counting method; type: functional; design: scale not given: the % may be the effect or the level left; details: dose 150 µg/ml
Pseudomonas aeruginosa [25] = experiment: Anti-adhesion activity against Pseudomonas aeruginosa PAO1 assessed as inhibition of adhesion ability at 50 ug/ml incubated for 3 hrs using glass as substrate by colony-counting method; type: functional
Pseudomonas aeruginosa [26] = experiment: Anti-adhesion activity against Pseudomonas aeruginosa PAO1 assessed as inhibition of adhesion ability at 200 uM incubated for 3 hrs using glass as substrate by SEM analysis; type: functional, organism-based
[27] = target: T1, PA-I galactophilic lectin (Pseudomonas aeruginosa (strain ATCC 15692 / PAO1 / 1C / PRS 101 / LMG12228), UniProt Q05097); experiment: Binding affinity to Pseudomonas aeruginosa PAO1 LecA assessed as dissociation constant by ITC analysis
T1 sequence (Q05097 whole entry): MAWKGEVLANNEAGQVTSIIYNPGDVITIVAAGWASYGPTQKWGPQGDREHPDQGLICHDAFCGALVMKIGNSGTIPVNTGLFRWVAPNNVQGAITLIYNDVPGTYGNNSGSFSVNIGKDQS

Pseudomonas aeruginosa [28] = experiment: Antibiofilm activity against Pseudomonas aeruginosa PAO1 assessed as inhibition of biofilm formation at 10 to 200 uM incubated for 24 hrs in presence of CaCl2 by crystal violet staining based microscopic analysis; type: functional, organism-based; details: dose 10-200 µM

SMILES | IC50 (Pseudomonas aeruginosa [2]) [µM] | inhibition at 200 µM (Pseudomonas aeruginosa [3]) [%] | Activity (Pseudomonas aeruginosa [5]) | IC50 (Pseudomonas aeruginosa [6]) [µM] | inhibition [7] | EC50 (Pseudomonas aeruginosa [8]) [µM] | Activity (Pseudomonas aeruginosa [9]) | Activity (Pseudomonas aeruginosa [10]) [%] | HC50 at 4 h [11] [mM] | Activity (Pseudomonas aeruginosa [12]) [%] | Activity [13] | Activity (Pseudomonas aeruginosa [14]) | Activity (Pseudomonas aeruginosa [15]) [%] | inhibition [16] | remaining at 24 h, up to 1000 µM [17] [%] | Activity (Pseudomonas aeruginosa [18]) | inhibition [19] | inhibition at 200 µM (Pseudomonas aeruginosa [20]) [%] | inhibition [21] | Activity (A549) [%] | also measured
O=C1N[C@@H](Cc2c[nH]c3ccccc23)C(=O)N[C@H]1CO | 800 | 16 | Active | 600 | Active | 800 |  |  |  |  |  |  |  |  |  |  |  |  |  |  | inhibition [1]: 20%; inhibition [4]: 35%
O=C1N[C@@H](Cc2c[nH]c3ccccc23)C(=O)N[C@H]1CO[C@@H]1O[C@H](CO)[C@@H](O)[C@H](O)[C@H]1O | 500 | 32 | Active | 250 | Active | 300 | Active | 5 | > 10 | 47 | Non-Toxic | Active | 73 | Active | > 70 | Active | Active | 44 | Active | 90 | 
CC[C@H]1OC(=O)[C@H](C)[C@@H](O[C@H]2C[C@@](C)(OC)[C@@H](O)[C@H](C)O2)[C@H](C)[C@@H](O[C@@H]2O[C@H](C)C[C@H](N(C)C)[C@H]2O)[C@](C)(O)C[C@@H](C)CN(C)[C@H](C)[C@@H](O)[C@]1(C)O [AZITHROMYCIN] |  |  |  |  |  |  |  |  |  |  |  |  |  |  |  |  |  |  |  |  | inhibition (Pseudomonas aeruginosa [22]): Active; Activity (Pseudomonas aeruginosa [23]): 27%; Activity (Pseudomonas aeruginosa [24]): 99%; inhibition at 50 µg/mL (Pseudomonas aeruginosa [25]): 48%
O=C1N[C@@H](Cc2c[nH]c3ccccc23)C(=O)N[C@H]1CO[C@@H]1O[C@H](CO)[C@H](O)[C@H](O)[C@H]1O | 200 | 50 | 29% | 100 | Active | 80 | Active | 7 | > 10 | 54 | Non-Toxic | Active | 81 | Active | > 70 | Active | Active | 69 | Active | 90 | inhibition (Pseudomonas aeruginosa [26]): Active; Kd [27]: 91.3 µM; inhibition (Pseudomonas aeruginosa [28]): Active
